Assays:
[1] = target: T1, GLS1 (purified recombinant human GAC) (Homo sapiens, UniProt O94925); assay: GLS1 enzymatic activity assay (dual-coupled, Amplex UltraRed/resorufin); assay type: biochemical
T1 sequence (O94925 55-598 isoform O94925-3 limits assumed): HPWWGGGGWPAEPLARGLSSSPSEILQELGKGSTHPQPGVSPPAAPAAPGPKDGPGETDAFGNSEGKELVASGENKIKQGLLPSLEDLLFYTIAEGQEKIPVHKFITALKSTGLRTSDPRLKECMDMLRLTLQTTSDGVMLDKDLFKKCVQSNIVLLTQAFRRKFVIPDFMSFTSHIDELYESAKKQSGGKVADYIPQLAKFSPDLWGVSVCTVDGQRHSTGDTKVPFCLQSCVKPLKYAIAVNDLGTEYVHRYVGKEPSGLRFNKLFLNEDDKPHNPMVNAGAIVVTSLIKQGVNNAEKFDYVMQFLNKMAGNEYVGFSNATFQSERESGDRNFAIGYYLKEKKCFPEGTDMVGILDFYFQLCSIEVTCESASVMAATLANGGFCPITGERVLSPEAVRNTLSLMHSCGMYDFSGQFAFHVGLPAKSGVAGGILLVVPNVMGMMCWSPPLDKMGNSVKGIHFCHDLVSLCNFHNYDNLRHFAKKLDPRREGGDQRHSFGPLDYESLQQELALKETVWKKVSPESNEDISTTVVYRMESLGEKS
Experimental: GLS1 Enzymatic Activity Assay
The inhibition of purified recombinant human GAC by varying concentrations of inhibitors is assessed via a dual-coupled enzymatic assay. The glutamate produced by the glutaminase reaction is used by glutamate oxidase to produce α-ketoglutarate, ammonia, and hydrogen peroxide, with this hydrogen peroxide subsequently being used by horseradish peroxidase to produce resorufin in the presence of Amplex UltraRed. The assay buffer consisted of 50 mM Hepes (pH 7.4), 0.25 mM EDTA and 0.1 mM Triton X-100. GAC was incubated with potassium phosphate (10 minutes at room temperature) prior to incubation with inhibitor (10 minutes at room temperature). The final reaction conditions were as follows: 2 nM GAC, 50 mM potassium phosphate, 100 mU/mL glutamate oxidase (Sigma), 1 mM glutamine (Sigma), 100 mU/mL horseradish peroxidase (Sigma), 75 μM Amplex UltraRed (Life Technologies), and 1% (v/v) DMSO. The production of resorufin was monitored on a Perkin Elmer Envision plate reader (excitation 530 nm, emission 590 nm) either in a kinetics or endpoint mode (at 20 minutes). IC50 values were calculated using a four-parameter logistic curve fit.

A549 cells = assay: A549 proliferation (viability) assay, Cell Titer Fluor, 72 hours; assay type: cell-based; settings: Homo sapiens
Experimental: A549 cells were routinely maintained in RPMI 1640 media (Gibco catalog number 11875-093) supplemented with 10% dialyzed fetal bovine serum using a humidified incubator (37° C., 5% CO2 and ambient O2). In preparation for the viability assay, cells were inoculated into 384-well black CulturPlates (Perkin Elmer) at a density of 1000 cells/well in a volume of 40 uL. Following a 24-hour incubation at 37° C., 5% CO2 and ambient O2, cells were treated with compound (10 uL) in a final DMSO concentration of 0.5% (v/v). The microplates were then incubated for 72 hours (37° C., 5% CO2 and ambient O2). Cell Titer Fluor (Promega) was subsequently added (10 uL of 6× reagent) and mixed for 15 minutes at room temperature. The plates were then incubated for 30 minutes (37° C., 5% CO2 and ambient O2) and fluorescence was subsequently read on the Perkin Elmer Envision plate reader. EC50 values were calculated using a four-parameter logistic curve fit.

Compound	IC50 [1] [nM]	EC50 (A549 cells) [nM]
O=C(Cc1ccccc1)Nc1ccn(CCCCc2nnc(NC(=O)[C@@H](O)c3ccccc3)s2)c(=O)n1 [Example 17, (S)-2-hydroxy-N-(5-(4-(2-oxo-4-(2-phenylacetamido)pyrimidin-1(2H)-yl)butyl)-1,3,4-thiadiazol-2-yl)-2-phenylacetamide]	< 100	> 5000
CC(=O)Nc1ccn(CCCCc2nnc(NC(=O)Cc3ccccc3)s2)c(=O)n1 [Example 18]	100 to 500	> 5000
O=C(Cc1cccc(OC(F)(F)F)c1)Nc1ccn(CCCCc2nnc(NC(=O)Cc3ccccc3)s2)c(=O)n1 [Example 19, N-(2-oxo-1-{4-[5-(2-phenylacetamido)-1,3,4-thiadiazol-2-yl]butyl}-1,2dihydropyrimidin-4-yl)-2-[3-(trifluoromethoxy)phenyl]acetamide]	< 100	100 to 500
O=C(Cc1ccccc1)Nc1ccc(CCCCn2ccc(NC(=O)Cc3ccccc3)nc2=O)nn1 [Example 20, N-(2-oxo-1-(4-(6-(2-phenylacetamido)pyridazin-3-yl)butyl)-1,2-dihydropyrimidin-4-yl)-2-phenylacetamide]	< 100	< 100
O=C(Cc1ccccc1)Nc1ccc(CCCCn2ccc(NC(=O)[C@@H](O)c3ccccc3)nc2=O)nn1 [Example 22, (S)-2-hydroxy-N-(2-oxo-1-(4-(6-(2-phenylacetamido)pyridazin-3-yl)butyl)-1,2-dihydropyrimidin-4-yl)-2-phenylacetamide]	< 100	500 to 5000
O=C(Cc1cccc(OC(F)(F)F)c1)Nc1ccc(CCCCn2ccc(NC(=O)NCc3ccccc3)nc2=O)nn1 [Example 23, N-(6-(4-(4-(3-benzylureido)-2-oxopyrimidin-1(2H)-yl)butyl)pyridazin-3-yl)-2-(3-(trifluoromethoxy)phenyl)acetamide]	< 100	500 to 5000
O=C(Cc1cccc(OC(F)(F)F)c1)Nc1ccc(CCCCn2ccc(NC(=O)OCc3ccccc3)nc2=O)nn1 [Example 24, Benzyl(2-oxo-1-(4-(6-(2-(3-(trifluoromethoxy)phenyl)acetamido)pyridazin-3-yl)butyl)-1,2-dihydropyrimidin-4-yl)carbamate]	< 100	< 100
O=C(Nc1ccn(CCCCc2nnc(C(=O)NCc3cccc(OC(F)(F)F)c3)s2)c(=O)n1)OCc1ccccc1 [Example 28, Benzyl 2-oxo-1-(4-(5-(3-(trifluoromethoxy)benzylcarbamoyl)-1,3,4-thiadiazol-2-yl)butyl)-1,2-dihydropyrimidin-4-ylcarbamate]	< 100	100 to 500
O=C(Cc1ccccc1)Nc1nnc(CCCCn2cc3cc(Cc4ccccc4)[nH]c3nc2=O)s1 [Example 29, N-(5-(4-(6-benzyl-2-oxo-2,7-dihydro-3H-pyrrolo[2,3-d]pyrimidin-3-yl)butyl)-1,3,4-thiadiazol-2-yl)-7-phenylacetamide]	< 100	> 5000
O=C(Cc1ccccc1)Nc1ccn(CCCCc2nnc(NC(=O)Cc3ccccc3)s2)c(=O)c1 [Example 31, N-(2-oxo-1-{4-[5-(2-phenylacetamido)-1,3,4-thiadiazol-2-yl]butyl}-1,2-dihydropyridin-4-yl)-2-phenylacetamide]	< 100	500 to 5000
CNC(=O)c1cn(CCCCn2ccc(NC(=O)Cc3ccccc3)cc2=O)nn1 [Example 32, N-methyl-1-{4-[2-oxo-4-(2-phenylacetamido)-1,2-dihydropyridin-1-yl]butyl}-1H-1,2,3-triazole-4-carboxamide]	500 to 5000	> 5000
O=C(Cc1ccccc1)Nc1ccn(CCCCn2cc(C(=O)NCc3cccc(OC(F)(F)F)c3)nn2)c(=O)c1 [Example 33, 1-{4-[2-oxo-4-(2-phenylacetamido)-1,2-dihydropyridin-1-yl]butyl}-N-{[3-(trifluoromethoxy)phenyl]methyl}-1H-1,2,3-triazole-4-carboxamide]	< 100	100 to 500
O=C(Cc1ccccc1)Nc1ccn(CCCCn2cc(C(=O)NCc3ccccn3)nn2)c(=O)c1 [Example 34, 1-{4-[2-oxo-4-(2-phenylacetamido)-1,2-dihydropyridin-1-yl]butyl}-N-(pyridin-2-ylmethyl)-1H-1,2,3-triazole-4-carboxamide]	100 to 500	> 5000
CC(C)CNC(=O)c1cn(CCCCn2ccc(NC(=O)Cc3ccccc3)cc2=O)nn1 [Example 35, N-(2-methylpropyl)-1-{4-[2-oxo-4-(2-phenylacetamido)-1,2-dihydropyridin-1-yl]butyl}-1H-1,2,3-triazole-4-carboxamide]	500 to 5000	> 5000
O=C(Cc1ccccc1)Nc1ccn(CCCCn2cc(C(=O)NCC3CCCCC3)nn2)c(=O)c1 [Example 36, N-(cyclohexylmethyl)-1-{4-[2-oxo-4-(2-phenylacetamido)-1,2-dihydropyridin-1-yl]butyl}-1H-1,2,3-triazole-4-carboxamide]	100 to 500	500 to 5000
CC(C)CC(=O)Nc1ccn(CCCCn2cc(C(=O)NCc3cccnc3)nn2)c(=O)c1 [Example 37, 1-{4-[4-(3-methylbutanamido)-2-oxo-1,2-dihydropyridin-1-yl]butyl}-N-(pyridin-3-ylmethyl)-1H-1,2,3-triazole-4-carboxamide]	500 to 5000	> 5000
CC(C)CC(=O)Nc1ccn(CCCCn2cc(C(=O)NCc3ccccn3)nn2)c(=O)c1 [Example 38, 1-{4-[4-(3-methylbutanamido)-2-oxo-1,2-dihydropyridin-1-yl]butyl}-N-(pyridin-2-ylmethyl)-1H-1,2,3-triazole-4-carboxamide]	500 to 5000	> 5000
CC(C)CC(=O)Nc1ccn(CCCCn2cc(C(=O)NCC3CCCCC3)nn2)c(=O)c1 [Example 39, N-(cyclohexylmethyl)-1-{4-[4-(3-methylbutanamido)-2-oxo-1,2-dihydropyridin-1-yl]butyl}-1H-1,2,3-triazole-4-carboxamide]	100 to 500	500 to 5000
CNC(=O)c1cn(CCCCn2ccc(NC(=O)Cc3cccc(OC(F)(F)F)c3)cc2=O)nn1 [Example 40, N-methyl-1-[4-(2-oxo-4-{2-[3-(trifluoromethoxy)phenyl]acetamido}-1,2-dihydropyridin-1-yl)butyl]-1H-1,2,3-triazole-4-carboxamide]	100 to 500	500 to 5000
O=C(Cc1cccc(OC(F)(F)F)c1)Nc1ccn(CCCCn2cc(C(=O)NCC3CCCCC3)nn2)c(=O)c1 [Example 41, N-(cyclohexylmethyl)-1-[4-(2-oxo-4-{2-[3-(trifluoro-methoxy)phenyl]acetamido}-1,2-dihydropyridin-1-yl)butyl]-1H-1,2,3-triazole-4-carboxamide]	< 100	500 to 5000
O=C(Nc1ccn(CCCCn2cc(C(=O)NCc3cccc(OC(F)(F)F)c3)nn2)c(=O)c1)OCc1ccccc1 [Example 42, benzyl N-(2-oxo-1-{4-[4-({[3-(trifluoromethoxy)phenyl]methyl}carbamoyl)-1H-1,2,3-triazol-1-yl]butyl}-1,2-dihydropyridin-4-yl)carbamate]	< 100	100 to 500
CC(C)OC(=O)Nc1ccn(CCCCn2cc(C(=O)NCc3cccc(OC(F)(F)F)c3)nn2)c(=O)c1 [Example 43, propan-2-yl N-(2-oxo-1-{4-[4-({[3-(trifluoromethoxy)phenyl]methyl}carbamoyl)-1H-1,2,3-triazol-1-yl]butyl}-1,2-dihydropyridin-4-yl)carbamate]	< 100	100 to 500
O=C(Nc1ccn(CCCCn2cc(C(=O)NCc3cccc(OC(F)(F)F)c3)nn2)c(=O)c1)OC1CCCCC1 [Example 44, cyclohexyl N-(2-oxo-1-{4-[4-({[3-(trifluoromethoxy)phenyl]methyl}carbamoyl)-1H-1,2,3-triazol-1-yl]butyl}-1,2-dihydropyridin-4-yl)carbamate]	< 100	< 100

From patent publication US20160002204A1 (Board of Regents, The University of Texas System, priority 2014, published 2016)
